Measurements reported in patent US4129737A, “Process for the preparation of an 8-alkyl-5-oxo-5,8-dihydro-pyrido(2,3-d)pyrimidine-6-carboxylic acid” (priority 1972, dated 1978).
In brackets after ≈: the same amount, converted by molar mass. Where two headings read alike, the source gives them in different places.

Experiments:
Format in all cases: cell-based
[1] = test system: Staphylococcus 209 P; assay: Minimum inhibitory concentration by agar dilution, Staphylococcus 209 P; conditions: Staphylococcus, 37° C., 18 hours, read-out: minimum inhibitory concentration (M.I.C.)
Method: (§1) (a) Trypticase soya medium (T.S.A.), which is very suitable for culturing the majority of microorganisms; it has the following composition:
(§2) (b) Ordinarily nutrient agar (N.A.), which is less rich in nutrients, corresponds to the following formulation: […]
(§3) Table I gives the minimum inhibitory concentrations (expressed in μg/cm^3) for the various microorganisms tested on each medium.
(§4) The products were tested on three Gram positive microorganisms (1 to 3) […] and on 10 Gram negative microorganisms (4 to 13).
(§5) Table (II) gives the minimum inhibitory concentrations of the compounds of Examples XII to XVI, determined on the agar medium, N.A., and expressed in μg/cm^3.

[2] = test system: Streptococcus; assay: Minimum inhibitory concentration by agar dilution, Streptococcus Group A
Method: as §1, §2, §3, §4, §5

[3] = test system: B. subtilis; assay: Minimum inhibitory concentration by agar dilution, B. subtilis; conditions: Bacillus subtilis, 37° C., 18 hours, read-out: minimum inhibitory concentration (M.I.C.)
Method: as §1, §2, §3, §4, §5

[4] = test system: Bord. bronchiseptica; assay: Minimum inhibitory concentration by agar dilution, Bord. bronchiseptica; conditions: Bordetella bronchiseptica, 37° C., 18 hours, read-out: minimum inhibitory concentration (M.I.C.)
Method: as §1, §2, §3, §4, §5

[5] = test system: B. pyocyaneus A22; assay: Minimum inhibitory concentration by agar dilution, B. pyocyaneus A22; conditions: Pseudomonas aeruginosa, A22, 37° C., 18 hours, read-out: minimum inhibitory concentration (M.I.C.)
Method: as §1, §2, §3, §4, §5

[6] = test system: B. pyocyaneus TUR; assay: Minimum inhibitory concentration by agar dilution, B. pyocyaneus TUR; conditions: Pseudomonas aeruginosa, 37° C., 18 hours
Method: as §1, §2, §3, §4

[7] = test system: Esch. Coli 95; assay: Minimum inhibitory concentration by agar dilution, Esch. Coli 95; conditions: Escherichia coli
Method: as §1, §2, §3, §4, §5

[8] = test system: Klebs. pneumoniae; assay: Minimum inhibitory concentration by agar dilution, Klebs. pneumoniae; conditions: Klebsiella pneumoniae, 37° C., 18 hours, read-out: minimum inhibitory concentration (M.I.C.)
Method: as §1, §2, §3, §4, §5

[9] = test system: Salm. typhi; assay: Minimum inhibitory concentration by agar dilution, Salm. typhi; conditions: Salmonella enterica, 18 h
Method: as §1, §2, §3, §4, §5

[10] = test system: Sh. sonnei; assay: Minimum inhibitory concentration by agar dilution, Sh. sonnei; conditions: Shigella sonnei, 37° C., 18 hours, read-out: minimum inhibitory concentration (M.I.C.)
Method: as §1, §2, §3, §4, §5

[11] = test system: Pr. vulgaris; assay: Minimum inhibitory concentration by agar dilution, Pr. vulgaris; conditions: Proteus vulgaris
Method: as §1, §2, §3, §4, §5

[12] = test system: Pr. mirabilis; assay: Minimum inhibitory concentration by agar dilution, Pr. mirabilis; conditions: Proteus mirabilis
Method: as §1, §2, §3, §4, §5

[13] = test system: Pr. morganii; assay: Minimum inhibitory concentration by agar dilution, Pr. morganii; conditions: Morganella morganii
Method: as §1, §2, §3, §4, §5

[14] = test system: Gram-negative microorganisms; assay: In vitro anti-microbial activity on agar media, overall; conditions: in vitro
Method: as §4

[15] = N.A. (nutrient agar, pH 6.8), Table I
[16] = T.S.A. (trypticase soya medium, pH 7.3)
[17] = N.A. (nutrient agar, pH 6.8), 37° C., 18 hours, Table I, read-out: minimum inhibitory concentration (M.I.C.)
[18] = T.S.A. (trypticase soya medium, pH 7.3), 37° C., 18 hours, read-out: minimum inhibitory concentration (M.I.C.)
[19] = T.S.A. (trypticase soya medium, pH 7.3), read-out: minimum inhibitory concentration (M.I.C.)
[20] = 18 h, pH 7.3, read-out: minimum inhibitory concentration (M.I.C.)
[21] = pH 6.8, read-out: minimum inhibitory concentration (M.I.C.)
[22] = pH 7.3, read-out: minimum inhibitory concentration (M.I.C.)
[23] = 18 h, pH 6.8, read-out: minimum inhibitory concentration (M.I.C.)

Row | SMILES | MIC [1, 15] [µg/mL] | MIC [1, 16] [µg/mL] | MIC [2, 17] [µg/mL] | MIC [3, 15] [µg/mL] | MIC [3, 16] [µg/mL] | MIC [4, 15] [µg/mL] | MIC [4, 16] [µg/mL] | MIC [5, 15] [µg/mL] | MIC [5, 16] [µg/mL] | MIC [6, 15] [µg/mL] | MIC [6, 19] [µg/mL] | MIC [7, 17] [µg/mL] | MIC [8, 15] [µg/mL] | MIC [8, 16] [µg/mL] | MIC [9, 21] [µg/mL] | MIC [9, 22] [µg/mL] | MIC [10, 15] [µg/mL] | MIC [10, 16] [µg/mL] | MIC [13, 17] [µg/mL] | activity against Gram-negative microorganisms [14] | also measured
1 | CCn1cc(C(=O)O)c(=O)c2cnc(N3CCN(Cc4ccccc4)CC3)nc21 [Example VII, 2-(4'-Benzyl-piperazino)-5-oxo-8-ethyl-5,8-dihydropyrido(2,3-d)pyrimidine-6-carboxylic acid] | 0.8 (≈ 2.03 µM) | 3.1 (≈ 7.88 µM) | 0.8 (≈ 2.03 µM) | 0.4 (≈ 1.02 µM) | 0.8 (≈ 2.03 µM) | 3.1 (≈ 7.88 µM) | > 100 | 100 (≈ 254 µM) | > 100 | 100 (≈ 254 µM) | > 100 | 1.6 (≈ 4.07 µM) | 0.4 (≈ 1.02 µM) | 1.6 (≈ 4.07 µM) | 1.6 (≈ 4.07 µM) | 12.5 (≈ 31.8 µM) | 1.6 (≈ 4.07 µM) | 12.5 (≈ 31.8 µM) | 3.1 (≈ 7.88 µM) | particularly active against Gram-negative microorganisms | MIC [2, 18]: 3.1 µg/mL (≈ 7.88 µM); MIC [7, 20]: 12.5 µg/mL (≈ 31.8 µM); MIC [11, 23]: 12.5 µg/mL (≈ 31.8 µM); MIC [11, 18]: 50 µg/mL (≈ 127 µM); MIC [12, 17]: 6.2 µg/mL (≈ 15.8 µM); MIC [12, 18]: 100 µg/mL (≈ 254 µM); MIC [13, 20]: 12.5 µg/mL (≈ 31.8 µM)
2 | CCn1cc(C(=O)O)c(=O)c2cnc(N3CCN(C)CC3)nc21 [Example V, 2-(4'-Methyl-piperazino)-5-oxo-8-ethyl-5,8-dihydro-pyrido(2,3-d)pyrimidine-6-carboxylic acid] | 3.1 (≈ 9.77 µM) | 100 (≈ 315 µM) | 25 (≈ 78.8 µM) | 1.6 (≈ 5.04 µM) | 6.2 (≈ 19.5 µM) | 50 (≈ 158 µM) | 100 (≈ 315 µM) | 12.5 (≈ 39.4 µM) | 100 (≈ 315 µM) | 50 (≈ 158 µM) | 100 (≈ 315 µM) | 0.8 (≈ 2.52 µM) | 0.4 (≈ 1.26 µM) | 6.2 (≈ 19.5 µM) | 3.1 (≈ 9.77 µM) | 3.1 (≈ 9.77 µM) | 0.8 (≈ 2.52 µM) | 1.6 (≈ 5.04 µM) | 0.8 (≈ 2.52 µM) | particularly active against Gram-negative microorganisms | MIC [2, 18]: 6.2 µg/mL (≈ 19.5 µM); MIC [7, 18]: 6.2 µg/mL (≈ 19.5 µM); MIC [11, 17]: 1.6 µg/mL (≈ 5.04 µM); MIC [11, 18]: 6.2 µg/mL (≈ 19.5 µM); MIC [12, 17]: 6.2 µg/mL (≈ 19.5 µM); MIC [12, 18]: 6.2 µg/mL (≈ 19.5 µM); MIC [13, 18]: 1.6 µg/mL (≈ 5.04 µM)
3 | CCn1cc(C(=O)O)c(=O)c2cnc(N3CCC(O)CC3)nc21 [IV, 2-(4'-Hydroxy-piperidino)-5-oxo-8-ethyl-5,8-dihydropyrido(2,3-d)pyrimidine-6-carboxylic acid] | 1.6 (≈ 5.03 µM) | 50 (≈ 157 µM) |  | 0.8 (≈ 2.51 µM) | 3.1 (≈ 9.74 µM) | 100 (≈ 314 µM) | > 100 | 100 (≈ 314 µM) | > 100 | 100 (≈ 314 µM) | > 100 | 6.2 (≈ 19.5 µM) | 0.4 (≈ 1.26 µM) | 0.8 (≈ 2.51 µM) | 6.2 (≈ 19.5 µM) | 12.5 (≈ 39.3 µM) | 3.1 (≈ 9.74 µM) | 12.5 (≈ 39.3 µM) | 0.4 (≈ 1.26 µM) | particularly active against Gram-negative microorganisms | MIC [2, 23]: 12.5 µg/mL (≈ 39.3 µM); MIC [2, 20]: 12.5 µg/mL (≈ 39.3 µM); MIC [7, 20]: 12.5 µg/mL (≈ 39.3 µM); MIC [11, 20]: 12.5 µg/mL (≈ 39.3 µM); MIC [11, 17]: 3.1 µg/mL (≈ 9.74 µM); MIC [12, 23]: 12.5 µg/mL (≈ 39.3 µM); MIC [12, 18]: 25 µg/mL (≈ 78.5 µM); MIC [13, 18]: 0.8 µg/mL (≈ 2.51 µM)
4 | CN1CCN(c2ncc3c(=O)c(C(=O)O)cn(C)c3n2)CC1 [Example X, 2-(4'-Methyl-piperazino)-5-oxo-8-methyl-5,8-dihydropyrido-(2,3-d)pyrimidine-6-carboxylic acid] | 50 (≈ 165 µM) | 100 (≈ 330 µM) | 50 (≈ 165 µM) | 100 (≈ 330 µM) | > 100 | 25 (≈ 82.4 µM) | 100 (≈ 330 µM) | 50 (≈ 165 µM) | > 100 | 50 (≈ 165 µM) | > 100 | 1.6 (≈ 5.27 µM) | 6.2 (≈ 20.4 µM) | 6.2 (≈ 20.4 µM) | 3.1 (≈ 10.2 µM) | 12.5 (≈ 41.2 µM) | 12.5 (≈ 41.2 µM) | 3.1 (≈ 10.2 µM) | 3.1 (≈ 10.2 µM) | particularly active against Gram-negative microorganisms | MIC [2, 18]: 100 µg/mL (≈ 330 µM); MIC [7, 18]: 6.2 µg/mL (≈ 20.4 µM); MIC [11, 17]: 3.1 µg/mL (≈ 10.2 µM); MIC [11, 18]: 25 µg/mL (≈ 82.4 µM); MIC [12, 20]: 12.5 µg/mL (≈ 41.2 µM); MIC [12, 17]: 3.1 µg/mL (≈ 10.2 µM); MIC [13, 18]: 6.2 µg/mL (≈ 20.4 µM)
